Laboratory results from PubChem BioAssay (NCI).
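These data come from cells grown in 96-well plates and exposed to compound for 48 hours at five concentrations. GI50 is the concentration that inhibits growth by half. TGI: total growth inhibition.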

Assays:
Experiment in all cases: DTP human tumour cell line panel, 48 h; in the data active means GI50 below about 0.43 µM; inactive means the rest
SK-MEL-2 melanoma = tested on: SK-MEL-2 melanoma
M19-MEL melanoma = tested on: M19-MEL melanoma
OVCAR-5 ovarian = tested on: OVCAR-5 ovarian
IGROV1 ovarian = tested on: IGROV1 ovarian
SF-295 CNS = tested on: SF-295 CNS
M14 melanoma = tested on: M14 melanoma
SR leukemia = tested on: SR leukemia
DLD-1 colon = tested on: DLD-1 colon
SF-268 CNS = tested on: SF-268 CNS
RXF 393 renal = tested on: RXF 393 renal
UACC-62 melanoma = tested on: UACC-62 melanoma
786-0 renal = tested on: 786-0 renal
RPMI-8226 leukemia = tested on: RPMI-8226 leukemia
SW-620 colon = tested on: SW-620 colon
OVCAR-3 ovarian = tested on: OVCAR-3 ovarian
SNB-19 CNS = tested on: SNB-19 CNS
SNB-75 CNS = tested on: SNB-75 CNS
EKVX NSCLC = tested on: EKVX NSCLC
HOP-18 NSCLC = tested on: HOP-18 NSCLC
SK-MEL-28 melanoma = tested on: SK-MEL-28 melanoma
NCI-H522 lung = tested on: NCI-H522 lung
SF-539 CNS = tested on: SF-539 CNS
TK-10 renal = tested on: TK-10 renal
UO-31 renal = tested on: UO-31 renal
NCI-H226 lung = tested on: NCI-H226 lung
COLO 205 colon = tested on: COLO 205 colon
SNB-78 CNS = tested on: SNB-78 CNS
A549 NSCLC = tested on: A549 NSCLC
OVCAR-8 ovarian = tested on: OVCAR-8 ovarian
CAKI-1 renal = tested on: CAKI-1 renal
U251 CNS = tested on: U251 CNS
KM20L2 colon = tested on: KM20L2 colon
OVCAR-4 ovarian = tested on: OVCAR-4 ovarian
MALME-3M melanoma = tested on: MALME-3M melanoma
HCC-2998 colon = tested on: HCC-2998 colon
LXFL 529 NSCLC = tested on: LXFL 529 NSCLC
SN12C renal = tested on: SN12C renal
NCI-H460 lung = tested on: NCI-H460 lung
HCT-116 colon = tested on: HCT-116 colon
HCT-15 colon = tested on: HCT-15 colon
DMS 114 small cell lung = tested on: DMS 114 small cell lung
NCI-H23 lung = tested on: NCI-H23 lung
DMS 273 small cell lung = tested on: DMS 273 small cell lung
LOX IMVI melanoma = tested on: LOX IMVI melanoma
HOP-62 NSCLC = tested on: HOP-62 NSCLC
HT29 colon = tested on: HT29 colon
SK-MEL-5 melanoma = tested on: SK-MEL-5 melanoma
HOP-92 NSCLC = tested on: HOP-92 NSCLC
CCRF-CEM leukemia = tested on: CCRF-CEM leukemia
KM12 colon = tested on: KM12 colon
K-562 leukemia = tested on: K-562 leukemia
ACHN renal = tested on: ACHN renal
MOLT-4 leukemia = tested on: MOLT-4 leukemia
UACC-257 melanoma = tested on: UACC-257 melanoma

NCCN.NCCN.[Cl-].[O]=[Os+2]=[O]
inactive: GI50 (SK-MEL-2 melanoma) > 100 µM | GI50 (M19-MEL melanoma) 12 µM | GI50 (OVCAR-5 ovarian) > 100 µM | GI50 (IGROV1 ovarian) > 100 µM | GI50 (SF-295 CNS) > 100 µM | GI50 (M14 melanoma) > 100 µM | GI50 (SR leukemia) 67.4 µM | GI50 (DLD-1 colon) > 100 µM | GI50 (SF-268 CNS) > 100 µM | GI50 (RXF 393 renal) > 100 µM | GI50 (UACC-62 melanoma) > 100 µM | GI50 (786-0 renal) > 100 µM | GI50 (RPMI-8226 leukemia) > 100 µM | GI50 (SW-620 colon) > 100 µM | GI50 (OVCAR-3 ovarian) > 100 µM | GI50 (SNB-19 CNS) > 100 µM | GI50 (SNB-75 CNS) 71 µM | GI50 (EKVX NSCLC) > 100 µM | GI50 (HOP-18 NSCLC) > 100 µM | GI50 (SK-MEL-28 melanoma) > 100 µM | GI50 (NCI-H522 lung) > 100 µM | GI50 (SF-539 CNS) > 100 µM | GI50 (TK-10 renal) > 100 µM | GI50 (UO-31 renal) > 100 µM | GI50 (NCI-H226 lung) > 100 µM | GI50 (COLO 205 colon) > 100 µM | GI50 (SNB-78 CNS) > 100 µM | GI50 (A549 NSCLC) > 100 µM | GI50 (OVCAR-8 ovarian) > 100 µM | GI50 (CAKI-1 renal) > 100 µM | GI50 (U251 CNS) > 100 µM | GI50 (KM20L2 colon) > 100 µM | GI50 (OVCAR-4 ovarian) > 100 µM | GI50 (MALME-3M melanoma) > 100 µM | GI50 (HCC-2998 colon) > 100 µM | GI50 (LXFL 529 NSCLC) > 100 µM | GI50 (SN12C renal) > 100 µM | GI50 (NCI-H460 lung) > 100 µM | GI50 (HCT-116 colon) > 100 µM | GI50 (HCT-15 colon) > 100 µM | GI50 (DMS 114 small cell lung) > 100 µM | GI50 (NCI-H23 lung) > 100 µM
28.8 µM: TGI (M19-MEL melanoma)
> 100 µM: TGI (SK-MEL-2 melanoma) | TGI (OVCAR-5 ovarian) | TGI (IGROV1 ovarian) | TGI (SF-295 CNS) | TGI (M14 melanoma) | TGI (SR leukemia) | TGI (DLD-1 colon) | TGI (SF-268 CNS) | TGI (RXF 393 renal) | TGI (UACC-62 melanoma) | TGI (786-0 renal) | TGI (RPMI-8226 leukemia) | TGI (SW-620 colon) | TGI (OVCAR-3 ovarian) | TGI (SNB-19 CNS) | TGI (SNB-75 CNS) | TGI (EKVX NSCLC) | TGI (HOP-18 NSCLC) | TGI (SK-MEL-28 melanoma) | TGI (NCI-H522 lung) | TGI (SF-539 CNS) | TGI (TK-10 renal) | TGI (UO-31 renal) | TGI (NCI-H226 lung) | TGI (COLO 205 colon) | TGI (SNB-78 CNS) | TGI (A549 NSCLC) | TGI (OVCAR-8 ovarian) | TGI (CAKI-1 renal) | TGI (U251 CNS) | TGI (KM20L2 colon) | TGI (OVCAR-4 ovarian) | TGI (MALME-3M melanoma) | TGI (HCC-2998 colon) | TGI (LXFL 529 NSCLC) | TGI (SN12C renal) | TGI (NCI-H460 lung) | TGI (HCT-116 colon) | TGI (HCT-15 colon) | TGI (DMS 114 small cell lung) | TGI (NCI-H23 lung)

O=C1CN2C(Cl)(Cl)C2(c2ccccc2)c2cc(Cl)ccc2N1CC1CC1 (stereo unspecified)
63.2 µM: TGI (DMS 273 small cell lung)
93.8 µM: TGI (M19-MEL melanoma)
35.7 µM: TGI (SK-MEL-5 melanoma)
30.2 µM: TGI (KM12 colon)
94.8 µM: TGI (SNB-75 CNS)
81.2 µM: TGI (HOP-18 NSCLC)
34.7 µM: TGI (U251 CNS)
35.9 µM: TGI (RXF 393 renal)
41.6 µM: TGI (NCI-H226 lung)
47.1 µM: TGI (SF-295 CNS)
86.1 µM: TGI (SF-268 CNS)
65.8 µM: TGI (K-562 leukemia) | TGI (ACHN renal)
31.6 µM: TGI (LOX IMVI melanoma)
33.8 µM: TGI (OVCAR-3 ovarian)
38.2 µM: TGI (NCI-H522 lung)
81.8 µM: TGI (RPMI-8226 leukemia)
29.8 µM: TGI (OVCAR-8 ovarian)
35.5 µM: TGI (SN12C renal)
35.8 µM: TGI (HCT-116 colon)
36.6 µM: TGI (M14 melanoma)
50.3 µM: TGI (HOP-62 NSCLC)
40.9 µM: TGI (UACC-257 melanoma)
38.8 µM: TGI (COLO 205 colon)
44.9 µM: TGI (HT29 colon)
48.9 µM: TGI (HCT-15 colon)
66.6 µM: TGI (UO-31 renal)
> 100 µM: TGI (OVCAR-5 ovarian) | TGI (SW-620 colon) | TGI (TK-10 renal) | TGI (CAKI-1 renal) | TGI (OVCAR-4 ovarian) | TGI (LXFL 529 NSCLC)
33.4 µM: TGI (SK-MEL-2 melanoma) | TGI (HCC-2998 colon)
89.1 µM: TGI (EKVX NSCLC)
85.8 µM: TGI (DMS 114 small cell lung)
32 µM: TGI (MALME-3M melanoma) | TGI (NCI-H460 lung)
68.6 µM: TGI (SR leukemia)
88.5 µM: TGI (KM20L2 colon)
44.2 µM: TGI (DLD-1 colon)
32.9 µM: TGI (SK-MEL-28 melanoma)
51.7 µM: TGI (NCI-H23 lung)
61.4 µM: TGI (CCRF-CEM leukemia)
54.8 µM: TGI (MOLT-4 leukemia)
26.2 µM: TGI (HOP-92 NSCLC)
